# Assay results taken from ChEMBL document CHEMBL3880386, “Combination comprising the MEK inhibitor N-{3-[3-cyclopropyl-5-(2-fluoro-4-iodo- phenylamino)-6,8-dimethyl-2,4,7-trioxo-3,4,6,7-tetrahydro-2H-pyrido[4,3-d]pyrimidin-1-yl]phenyl}acetamide and the Akt inhibitor N-{(1S)-2-amino-1-[(3-fluorophenyl)methyl]ethyl}-5-chloro-4-(4-chloro-1- …” (2014).
# Legend:
# [1] = (§1) Growth inhibition of human SW1463 cells assessed combination index at 1:10 molar ratio of compound in presence of N-{3-[3-cyclopropyl-5-(2-fluoro-4-iodo-phenylamino)-6,8-dimethyl- 2,4,7-trioxo-3,4,6,7-tetrahydro-2H-pyrido[4,3-d]pyrimidin-1-yl]phenyl}acetamide incubated for 72 hrs by Cell-titer-Glo reagent based assay; type: functional
# [2] = Growth inhibition of human NCI-H1355 cells at 1:10 molar ratio of compound in presence of N-{3-[3-cyclopropyl-5-(2-fluoro-4-iodo-phenylamino)-6,8-dimethyl- 2,4,7-trioxo-3,4,6,7-tetrahydro-2H-pyrido[4,3-d]pyrimidin-1-yl]phenyl}acetamide incubated for 72 hrs by Cell-titer-Glo reagent based assay; type: functional; conditions: NCI-H1355, 72 h
# [3] = Growth inhibition of human KM12 cells at 1:10 molar ratio of compound in presence of N-{3-[3-cyclopropyl-5-(2-fluoro-4-iodo-phenylamino)-6,8-dimethyl- 2,4,7-trioxo-3,4,6,7-tetrahydro-2H-pyrido[4,3-d]pyrimidin-1-yl]phenyl}acetamide incubated for 72 hrs by Cell-titer-Glo reagent based assay; type: functional; conditions: KM12, 72 h
# [4] = Growth inhibition of human NCI-H1792 cells at 1:10 molar ratio of compound in presence of N-{3-[3-cyclopropyl-5-(2-fluoro-4-iodo-phenylamino)-6,8-dimethyl- 2,4,7-trioxo-3,4,6,7-tetrahydro-2H-pyrido[4,3-d]pyrimidin-1-yl]phenyl}acetamide incubated for 72 hrs by Cell-titer-Glo reagent based assay; type: functional; conditions: NCI-H1792, 72 h
# [5] = Growth inhibition of human A427 cells at 1:10 molar ratio of compound in presence of N-{3-[3-cyclopropyl-5-(2-fluoro-4-iodo-phenylamino)-6,8-dimethyl- 2,4,7-trioxo-3,4,6,7-tetrahydro-2H-pyrido[4,3-d]pyrimidin-1-yl]phenyl}acetamide incubated for 72 hrs by Cell-titer-Glo reagent based assay; type: functional; conditions: A-427, 72 h
# [6] = Growth inhibition of human COLO205 cells at 1:10 molar ratio of compound in presence of N-{3-[3-cyclopropyl-5-(2-fluoro-4-iodo-phenylamino)-6,8-dimethyl- 2,4,7-trioxo-3,4,6,7-tetrahydro-2H-pyrido[4,3-d]pyrimidin-1-yl]phenyl}acetamide incubated for 72 hrs by Cell-titer-Glo reagent based assay; type: functional; conditions: COLO 205, 72 h
# [7] = as §1, with “NCI-H23” for “SW1463”; type: functional
# [8] = Growth inhibition of human DLD1 cells at 1:10 molar ratio of compound in presence of N-{3-[3-cyclopropyl-5-(2-fluoro-4-iodo-phenylamino)-6,8-dimethyl- 2,4,7-trioxo-3,4,6,7-tetrahydro-2H-pyrido[4,3-d]pyrimidin-1-yl]phenyl}acetamide incubated for 72 hrs by Cell-titer-Glo reagent based assay; type: functional; conditions: DLD-1, 72 h
# [9] = as §1, with “Calu6” for “SW1463”; type: functional, Calu-6
# [10] = Growth inhibition of human SW480 cells at 1:10 molar ratio of compound in presence of N-{3-[3-cyclopropyl-5-(2-fluoro-4-iodo-phenylamino)-6,8-dimethyl- 2,4,7-trioxo-3,4,6,7-tetrahydro-2H-pyrido[4,3-d]pyrimidin-1-yl]phenyl}acetamide incubated for 72 hrs by Cell-titer-Glo reagent based assay; type: functional; conditions: SW480, 72 h
# [11] = Growth inhibition of human HT-29 cells at 1:10 molar ratio of compound in presence of N-{3-[3-cyclopropyl-5-(2-fluoro-4-iodo-phenylamino)-6,8-dimethyl- 2,4,7-trioxo-3,4,6,7-tetrahydro-2H-pyrido[4,3-d]pyrimidin-1-yl]phenyl}acetamide incubated for 72 hrs by Cell-titer-Glo reagent based assay; type: functional; conditions: HT-29, 72 h
# [12] = Growth inhibition of human SW1463 cells at 1:10 molar ratio of compound in presence of N-{(1S)-2-amino-1-[(3-fluorophenyl)methyl]ethyl}-5-chloro-4-(4-chloro-1-methyl-1H-pyrazol-5-yl)-2-thiophenecar- boxamide incubated for 72 hrs by Cell-titer-Glo reagent based assay; type: functional; conditions: SW1463, 72 h
# [13] = (§2) Growth inhibition of human NCI-H1355 cells assessed combination index at 1:10 molar ratio of compound in presence of N-{(1S)-2-amino-1-[(3-fluorophenyl)methyl]ethyl}-5-chloro-4-(4-chloro-1-methyl-1H-pyrazol-5-yl)-2-thiophenecar- boxamide incubated for 72 hrs by Cell-titer-Glo reagent based assay; type: functional
# [14] = Growth inhibition of human SW1573 cells at 1:10 molar ratio of compound in presence of N-{(1S)-2-amino-1-[(3-fluorophenyl)methyl]ethyl}-5-chloro-4-(4-chloro-1-methyl-1H-pyrazol-5-yl)-2-thiophenecar- boxamide incubated for 72 hrs by Cell-titer-Glo reagent based assay; type: functional; conditions: SW1573, 72 h
# [15] = as §2, with “MDA-MB-175-VII” for “NCI-H1355”; type: functional
# [16] = Growth inhibition of human NCI-H1155 cells at 1:10 molar ratio of compound in presence of N-{(1S)-2-amino-1-[(3-fluorophenyl)methyl]ethyl}-5-chloro-4-(4-chloro-1-methyl-1H-pyrazol-5-yl)-2-thiophenecar- boxamide incubated for 72 hrs by Cell-titer-Glo reagent based assay; type: functional; conditions: NCI-H1155, 72 h
# [17] = Growth inhibition of human HT-29 cells at 1:10 molar ratio of compound in presence of N-{(1S)-2-amino-1-[(3-fluorophenyl)methyl]ethyl}-5-chloro-4-(4-chloro-1-methyl-1H-pyrazol-5-yl)-2-thiophenecar- boxamide incubated for 72 hrs by Cell-titer-Glo reagent based assay; type: functional; conditions: HT-29, 72 h
# [18] = Growth inhibition of human HT-29 cells assessed combination index at 1:10 molar ratio of compound in presence of N-{(1S)-2-amino-1-[(3-fluorophenyl)methyl]ethyl}-5-chloro-4-(4-chloro-1-methyl-1H-pyrazol-5-yl)-2-thiophenecar- boxamide incubated for 72 hrs by Cell-titer-Glo reagent based assay; type: functional
# [19] = Growth inhibition of human HCC827 cells at 1:10 molar ratio of compound in presence of N-{(1S)-2-amino-1-[(3-fluorophenyl)methyl]ethyl}-5-chloro-4-(4-chloro-1-methyl-1H-pyrazol-5-yl)-2-thiophenecar- boxamide incubated for 72 hrs by Cell-titer-Glo reagent based assay; type: functional; conditions: HCC827, 72 h
# [20] = Growth inhibition of human LS1034 cells assessed combination index at 1:10 molar ratio of compound in presence of N-{(1S)-2-amino-1-[(3-fluorophenyl)methyl]ethyl}-5-chloro-4-(4-chloro-1-methyl-1H-pyrazol-5-yl)-2-thiophenecar- boxamide incubated for 72 hrs by Cell-titer-Glo reagent based assay; type: functional, LS-1034
# [21] = Growth inhibition of human COR-L23 cells assessed combination index at 1:10 molar ratio of compound in presence of N-{(1S)-2-amino-1-[(3-fluorophenyl)methyl]ethyl}-5-chloro-4-(4-chloro-1-methyl-1H-pyrazol-5-yl)-2-thiophenecar- boxamide incubated for 72 hrs by Cell-titer-Glo reagent based assay; type: functional
compound,measurement,setting,value
Cn1ncc(Cl)c1-c1cc(C(=O)N[C@H](CN)Cc2cccc(F)c2)sc1Cl [AFURESERTIB],CI,[1],0.94
same,IC50,[2],268 nM
same,IC50,[3],104 nM
same,IC50,[4],374 nM
same,IC50,[5],103 nM
same,IC50,[6],9 nM
same,CI,[7],0.76
same,IC50,[8],932 nM
same,CI,[9],0.79
same,IC50,[10],259 nM
same,IC50,[11],15 nM
CC(=O)Nc1cccc(-n2c(=O)n(C3CC3)c(=O)c3c(Nc4ccc(I)cc4F)n(C)c(=O)c(C)c32)c1 [TRAMETINIB],IC50,[12],4 nM
same,CI,[13],0.57
same,IC50,[14],38 nM
same,CI,[15],0.39
same,IC50,[16],10 nM
same,IC50,[17],1 nM
same,CI,[18],0.95
same,IC50,[19],40 nM
same,CI,[20],0.84
same,CI,[21],0.17
